The results in this text go back to PubChem BioAssay AID743357 (Broad Institute, 2014).

The target of the experiment is BioA, adenosylmethionine-8-amino-7-oxononanoate aminotransferase (Mycobacterium tuberculosis). In words: BioA aminotransferase inhibition, biochemical, coupled fluorescence displacement, 20-point, dry powder, dose response (AID 743357). The settings on record: coupled fluorescence displacement assay.
Where [1] appears, read: measured here: test 1 replicate AC50.
Setting [2] is: measured here: test 2 replicate AC50.

Active and inactive are the calls of the source. The rule behind the calls is not given here.

Consider `CN1c2ccc(-c3ccc(F)cc3)cc2[C@H]2[C@H](CCN2C(=O)Cc2cccnc2)[C@H]1CO`, for which the “activity change, negative = inhibition” value (at 9 µM (top of the series)) was “inactive”.

Turning to `CC(=O)c1ccc(N2CCN(C(=O)c3ccc4c(c3)OC(F)(F)O4)CC2)cc1`, where the note is “at 10 µM (top of the series)”, the “activity change, negative = inhibition” value is “inactive”.

`CN1c2ccc(-c3ccc(F)cc3)cc2[C@H]2[C@H](CCN2C(=O)Nc2ccc(F)cc2)[C@H]1CO`: the “activity change, negative = inhibition” value (at 10 µM (top of the series)) was “inactive”.

As to `CC(=O)c1ccc(N2CCN(C(=O)Nc3ccc4c(c3)OCO4)CC2)cc1`, the “activity change, negative = inhibition” value (at 10 µM (top of the series)) was “inactive”. Moreover, under setting [1], the AC50 (usually the concentration giving half of the maximal activity seen) was more than 20000 nM.

With `CC(=O)c1ccc(N2CCN(C(=O)c3ccccc3Cl)CC2)cc1`, the concentration at half-maximal activity (AC50) was 8240 nM. In addition, the concentration at half-maximal activity (AC50) under setting [2] is 8240 nM.

Regarding `CN1c2ccc(-c3cccc(F)c3)cc2[C@@H]2[C@@H](CCN2C(=O)c2ccc3c(c2)OCO3)[C@H]1CO`, the “activity change, negative = inhibition” value (at 10 µM (top of the series)) was “inactive”.

Consider `CCCNC(=O)N1CC[C@@H]2[C@@H](CO)N(C)c3ccc(-c4ccc(F)cc4)cc3[C@@H]21`, for which, under “at 10 µM (top of the series)”, the “activity change, negative = inhibition” value was “inactive”. Further, under setting [2], the AC50 is more than 20000 nM.

Take `COc1ccc(NC(=O)N2CC[C@@H]3[C@@H](CO)N(C)c4ccc(-c5ccc(F)cc5)cc4[C@@H]32)cc1`: the “activity change, negative = inhibition” value (at 10 µM (top of the series)) is “inactive”.

Take `CN1c2ccc(-c3cccc(F)c3)cc2[C@H]2[C@H](CCN2C(=O)Nc2ccccc2F)[C@H]1CO`: the “activity change, negative = inhibition” value (at 10 µM (top of the series)) is “inactive”.

Take `CN1c2ccc(-c3cccc(F)c3)cc2[C@H]2[C@H](CCN2C(=O)Cc2cccnc2)[C@H]1CO`: the “activity change, negative = inhibition” value (at 10 µM (top of the series)) is “inactive”. Under setting [2], this compound had a concentration at half-maximal activity (AC50) of more than 20000 nM.

`COC(=O)CCCCCCC(=O)N1CC[C@@H]2[C@@H](CO)N(C)c3ccc(-c4cccc(F)c4)cc3[C@@H]21`: the “activity change, negative = inhibition” value (at 10 µM (top of the series)) was “inactive”. In addition, the AC50 under setting [2] is more than 20000 nM.

In the case of `CC(=O)c1ccc(N2CCN(C(=O)c3ccc4ocnc4c3)CC2)cc1`, the AC50 is 198 nM. In addition, the AC50 under setting [1] is 198 nM.

`COc1cccc(NC(=O)N2CC[C@@H]3[C@@H](CO)N(C)c4ccc(-c5cccc(F)c5)cc4[C@@H]32)c1`: the “activity change, negative = inhibition” value (at 10 µM (top of the series)) is “inactive”.

Turning to `CC(=O)c1ccc(N2CCN(C(=O)c3ccc4c(c3)OCO4)[C@H](C)C2)cc1`, the AC50 is 55.3 nM. Besides, under setting [2], the concentration at half-maximal activity (AC50) was 55.3 nM.

Consider `CC(=O)c1ccc(N2CCN(C(=O)c3ccc4c(c3C)OCO4)CC2)cc1`, for which the half-maximal activity concentration (AC50) is 53.7 nM. Also, the AC50 under setting [1] was found to be 53.7 nM.

Take `CN1c2ccc(-c3cccc(F)c3)cc2[C@H]2[C@H](CCN2C(=O)c2ccc3c(c2)OCO3)[C@@H]1CO`: the “activity change, negative = inhibition” value (at 10 µM (top of the series)) was “inactive”.

Turning to `COc1cc(C(=O)N2CCN(c3ccc(C(C)=O)cc3)CC2)cc2c1OCO2`, the concentration at half-maximal activity (AC50) is 181 nM. Also, the half-maximal activity concentration (AC50) under setting [1] turned out to be 181 nM.

As for `CN(C)S(=O)(=O)c1ccc(N2CCN(C(=O)c3ccc4c(c3)OCO4)CC2)cc1`, the “activity change, negative = inhibition” value (at 10 µM (top of the series)) is “inactive”.

On to `COc1ccccc1NC(=O)N1CC[C@@H]2[C@@H](CO)N(C)c3ccc(-c4ccc(F)cc4)cc3[C@@H]21`, for which, for the setting “at 10 µM (top of the series)”, the “activity change, negative = inhibition” value was “inactive”.

On to `CC(C)NC(=O)N1CC[C@@H]2[C@@H](CO)N(C)c3ccc(-c4ccc(F)cc4)cc3[C@@H]21`, for which the “activity change, negative = inhibition” value (at 10 µM (top of the series)) is “inactive”. Moreover, under setting [2], the concentration at half-maximal activity (AC50) is more than 20000 nM.

For the compound `COc1ccc(NC(=O)N2CC[C@@H]3[C@@H](CO)N(C)c4ccc(-c5cccc(F)c5)cc4[C@@H]32)cc1`, where the note is “at 10 µM (top of the series)”, the “activity change, negative = inhibition” value was “inactive”.

For the compound `CCCCCCCC(=O)N1CC[C@@H]2[C@@H](CO)N(C)c3ccc(-c4cccc(F)c4)cc3[C@@H]21`, the “activity change, negative = inhibition” value (at 10 µM (top of the series)) is “inactive”.

For `O=C(c1ccc2c(c1)OCO2)N1CCN(c2ccc(C(F)(F)F)cc2)CC1`, the “activity change, negative = inhibition” value (at 10 µM (top of the series)) is “inactive”. Besides, the half-maximal activity concentration (AC50) under setting [1] was more than 20000 nM.

As to `O=C(c1ccc2c(c1)OCO2)N1CCN(c2ccc(OC(F)(F)F)cc2)CC1`, the “activity change, negative = inhibition” value (at 10 µM (top of the series)) was “inactive”.

Consider `CC(=O)c1ccc(N2CCN(C(=O)c3cccc4c3OCO4)CC2)cc1`, for which the AC50 was 1580 nM. Under setting [1], the concentration at half-maximal activity (AC50) was determined as 1580 nM.

With `CC(=O)c1ccc(NCCNC(=O)c2ccc3c(c2)OCO3)cc1`, the “activity change, negative = inhibition” value (at 10 µM (top of the series)) is “inactive”.

`CC(=O)c1ccc(N2CC3(CN(C(=O)c4ccc5c(c4)OCO5)C3)C2)cc1`: the “activity change, negative = inhibition” value (at 10 µM (top of the series)) was “inactive”.

Turning to `CN1c2ccc(-c3cccc(F)c3)cc2[C@H]2[C@H](CCN2C(=O)Cc2ccccc2)[C@H]1CO`, the “activity change, negative = inhibition” value (at 10 µM (top of the series)) was “inactive”.

Regarding `COc1ccccc1NC(=O)N1CC[C@@H]2[C@@H](CO)N(C)c3ccc(-c4cccc(F)c4)cc3[C@@H]21`, the “activity change, negative = inhibition” value (at 10 µM (top of the series)) was “inactive”.

With `CN1c2ccc(-c3ccc(F)cc3)cc2[C@H]2[C@H](CCN2C(=O)Nc2cc(F)ccc2F)[C@H]1CO`, the “activity change, negative = inhibition” value (at 10 µM (top of the series)) is “inactive”.

With `CC(=O)c1ccc(N2CCN(C(=O)c3ccc(Cl)c(Cl)c3)CC2)cc1`, the half-maximal activity concentration (AC50) was 217 nM. In addition, the concentration at half-maximal activity (AC50) under setting [1] came out at 217 nM.

As to `CC(=O)c1ccc(N2CCN(C(=O)c3cc4c(cn3)OCO4)CC2)cc1`, for the setting “at 10 µM (top of the series)”, the “activity change, negative = inhibition” value was “inactive”. Under setting [1], this compound had an AC50 of more than 20000 nM.

`CC(=O)c1ccc(N2CCN(C(=O)c3cc4c(cc3Cl)OCO4)CC2)cc1`: the AC50 was 6570 nM. This compound had a half-maximal activity concentration (AC50) under setting [1] of 6570 nM.

Take `CN1c2ccc(-c3ccc(F)cc3)cc2[C@H]2[C@H](CCN2C(=O)Cc2ccccn2)[C@H]1CO`: under “at 10 µM (top of the series)”, the “activity change, negative = inhibition” value was “inactive”.

For the compound `CNC(=O)c1ccc(N2CCN(C(=O)c3ccc4c(c3)OCO4)CC2)cc1`, the “activity change, negative = inhibition” value (at 10 µM (top of the series)) was “inactive”. Under setting [2], this compound registered a half-maximal activity concentration (AC50) of more than 20000 nM.

`CC(=O)c1ccc(N2CCN(S(=O)(=O)c3ccc4c(c3)OCO4)CC2)cc1`: the “activity change, negative = inhibition” value (at 10 µM (top of the series)) is “inactive”.

For the compound `COc1ccccc1C(=O)N1CCN(c2ccc(C(C)=O)cc2)CC1`, for the setting “at 10 µM (top of the series)”, the “activity change, negative = inhibition” value was “inactive”. The compound further returned a half-maximal activity concentration (AC50) under setting [2] of more than 20000 nM.

As to `CC(=O)c1ccc(N2CCN(C(=O)c3ccc4c(c3)OC(C)(C)O4)CC2)cc1`, the “activity change, negative = inhibition” value (at 10 µM (top of the series)) was “inactive”.

As for `CC(=O)c1ccc(N2CC3CC2CN3C(=O)c2ccc3c(c2)OCO3)cc1` (stereo not given), the “activity change, negative = inhibition” value (at 10 µM (top of the series)) is “inactive”. Under setting [1], the AC50 is more than 20000 nM.

In the case of `O=C(c1ccc2c(c1)OCO2)N1CCN(c2ccc(S(=O)(=O)C(F)(F)F)cc2)CC1`, the “activity change, negative = inhibition” value (at 10 µM (top of the series)) was “inactive”.

For `CCC(=O)N1CC[C@@H]2[C@@H](CO)N(C)c3ccc(-c4ccc(F)cc4)cc3[C@@H]21`, the AC50 was 2820 nM. The compound further came in with a concentration at half-maximal activity (AC50) under setting [2] of 2820 nM.

With `CC(=O)c1ccc(N2CCN(C(=O)c3ccc4snnc4c3)CC2)cc1`, the AC50 was 1850 nM. Under setting [1], this compound yielded an AC50 of 1850 nM.

With `CC(=O)c1ccc(N2CCCN(C(=O)c3ccc4c(c3)OCO4)CC2)cc1`, the AC50 was 289 nM. Further, under setting [1], the concentration at half-maximal activity (AC50) was 289 nM.

As to `COCC(=O)N1CC[C@@H]2[C@@H](CO)N(C)c3ccc(-c4cccc(F)c4)cc3[C@@H]21`, the AC50 was 55.4 nM. The compound also came in with a concentration at half-maximal activity (AC50) under setting [2] of 55.4 nM.

For the compound `CC(=O)c1ccc(N2CCN(C(=O)c3cc4c(cc3C)OCO4)CC2)cc1`, the half-maximal activity concentration (AC50) is 1090 nM. In addition, the AC50 under setting [1] came to 1090 nM.

As for `CNS(=O)(=O)c1ccc(N2CCN(C(=O)c3ccc4c(c3)OCO4)CC2)cc1`, the “activity change, negative = inhibition” value (at 10 µM (top of the series)) is “inactive”.

As to `CC(=O)c1ccc(N2CCN(C(=O)c3ccc4c(c3)OCO4)CC2)cc1`, the AC50 was 49.7 nM. This compound also yielded an AC50 under setting [1] of 30.1 nM. Under setting [2], this compound returned an AC50 of 69.2 nM.

For `CN1c2ccc(-c3cccc(F)c3)cc2[C@@H]2[C@@H](CCN2C(=O)c2ccc3c(c2)OCO3)[C@@H]1CO`, the “activity change, negative = inhibition” value (at 5.6 µM (top of the series)) was “inactive”.

As to `CC(=O)c1ccc(N2CCN(C(=O)c3ccccc3F)CC2)cc1`, the half-maximal activity concentration (AC50) is 6400 nM. The compound further yielded an AC50 under setting [2] of 6400 nM.
